US20230141600A1, “IMIDAZOPYRAZINE DERIVATIVES” (priority 2020, published 2023)
Counter-ions that a name gives are not always drawn. Like-named read-outs stand apart in the source and are kept apart here.

Columns and labels:
[1] = system: Acinetobacter baumannii ATCC17978; experiment: 90% growth inhibitory concentration (IC90) determination, antimicrobial susceptibility testing; format: cell-based; conditions: read-out: ATCC 17978 IC90
Procedure: Antimicrobial Susceptibility Testing:
90% Growth Inhibitory Concentration (IC90) Determination
The in vitro antimicrobial activity of the compounds was determined according to the following procedure:
The assay used a 10-points Iso-Sensitest broth medium to measure quantitatively the in vitro activity of the compounds against Acinetobacter baumannii ATCC17961 and ATCC17978.
Stock compounds in DMSO were serially twofold diluted (e.g. range from 50 to 0.097 μM final concentration) in 384 wells microtiter plates and inoculated with 49 μl the bacterial suspension in Iso-Sensitest medium to have a final cell concentration of ˜5×10^(5) CFU/ml in a final volume/well of 50 ul/well. Microtiter plates were incubated at 35±2° C.
Bacterial cell growth was determined with the measurement of optical density at λ=600 nm each minutes over a time course of 16 h. Growth inhibition was calculated during the logarithmic growth of the bacterial cells with determination of the concentration inhibiting 50% (IC50) and 90% (IC90) of the growth.
Table 1 provides the 90% growth inhibitory concentrations (IC90) in micromoles per liter of the compounds of present invention obtained against the strain Acinetobacter baumannii ATCC17978.

[2] = system: Acinetobacter baumannii ATCC17961; experiment: as above; format: cell-based; conditions: 90% growth inhibition, Iso-Sensitest broth, OD 600 nm over 16 h, 35±2° C., read-out: ATCC 17961 IC90
How it was run: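 Twofold serial dilutions (e.g. 50 to 0.097 μM final) in Iso-Sensitest broth, inoculated at ~5×10^5 CFU/ml and incubated at 35±2 °C for 16 h with OD600 read every minute. IC90 taken from growth inhibition during the logarithmic phase.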

[3] = ATCC17978, 90% growth inhibition, Iso-Sensitest broth, OD 600 nm over 16 h, 35±2° C.

Row | Molecule | IC90 [1, 3] | further results
1 | CC[N+]1(C)CCC(CCNC(=O)c2ccc(Nc3nccn4c(-c5ccc(OC)cc5)cnc34)cc2C)CC1 (stereo not shown) [Example 20, 1-ethyl-4-(2-(4-((3-(4-methoxyphenyl)imidazo[1,2-a]pyrazin-8-yl)amino)-2-methylbenzamido)ethyl)-1-methylpiperidin-1-ium Formate] | 958 nM | –
2 | Cc1cc(Nc2nccn3c(-c4ccc(OCC#N)c(F)c4F)cnc23)ccc1C(=O)N1CCC(CC[N+](C)(C)C)CC1 [Example 2, 2-[1-[4-[[3-[4-(Cyanomethoxy)-2,3-difluoro-phenyl]imidazo[1,2-a]pyrazin-8-yl]amino]-2-methyl-benzoyl]-4-piperidyl]ethyl-trimethyl-ammonium Formate] | – | IC90 ([1]; ATCC17978, 16 h): 214 nM
3 | COc1ccc(-c2cnc3c(Nc4ccc(C(=O)N5CCN(CC[N+](C)(C)C)CC5)c(Br)c4)nccn23)cc1F [Example 14, 2-[4-[2-Bromo-4-[[3-(3-fluoro-4-methoxy-phenyl)imidazo[1,2-a]pyrazin-8-yl]amino]benzoyl]piperazin-1-yl]ethyl-trimethyl-ammonium 2,2,2-trifluoroacetate] | 476 nM | –
4 | COc1ccc(-c2cnc3c(Nc4ccc(C(=O)NCCC5CC[N+](C)(CC(=O)O)CC5)c(C)c4)nccn23)cc1 (stereo not shown) [Example 23, 1-(carboxymethyl)-4-(2-(4-((3-(4-methoxyphenyl)imidazo[1,2-a]pyrazin-8-yl)amino)-2-methylbenzamido)ethyl)-1-methylpiperidin-1-ium Formate] | 2220 nM | –
5 | COc1ccc(-c2cnc3c(Nc4ccc(C(=O)N(C)CCC5CC[N+](C)(C)CC5)c(C)c4)nccn23)c(F)c1F [Example 22, 4-[[3-(2,3-Difluoro-4-methoxy-phenyl)imidazo[1,2-a]pyrazin-8-yl]amino]-N-[2-(1,1-dimethylpiperidin-1-ium-4-yl)ethyl]-N,2-dimethyl-benzamide 2,2,2-trifluoroacetate] | 260 nM | –
6 | CCc1cc(Nc2nccn3c(-c4ccc(OC)c(F)c4F)cnc23)ccc1C(=O)NCCOCC[N+](C)(C)C [Example 13, 2-(2-(4-((3-(2,3-difluoro-4-methoxyphenyl)imidazo[1,2-a]pyrazin-8-yl)amino)-2-ethylbenzamido)ethoxy)-N,N,N-trimethylethanaminium Formate] | 109 nM | –
7 | Cc1cc(Nc2nccn3c(-c4ccc(OC(F)F)cc4)cnc23)ccc1C(=O)N1CCN(C(=O)N2CC[N+](C)(C)CC2)CC1 [Example 30, [4-[[3-[4-(Difluoromethoxy)phenyl]imidazo[1,2-a]pyrazin-8-yl]amino]-2-methyl-phenyl]-[4-(4,4-dimethylpiperazin-4-ium-1-carbonyl)piperazin-1-yl]methanone Formate] | 497 nM | –
8 | Cc1cc(Nc2nccn3c(-c4ccc(OCC#CCN)cc4)cnc23)ccc1C(=O)N(C)CCC1CC[N+](C)(C)CC1 [Example 5, 4-[[3-[4-(4-aminobut-2-ynoxy)phenyl]imidazo[1,2-a]pyrazin-8-yl]amino]-N-[2-(1,1-dimethylpiperidin-1-ium-4-yl)ethyl]-N,2-dimethyl-benzamide Formate] | 2130 nM | –
9 | Cc1cc(Nc2nccn3c(-c4ccc(OC(F)F)cc4)cnc23)ccc1C(=O)NCCCCCC[N+](C)(C)C [Example 25, 6-(4-((3-(4-(difluoromethoxy)phenyl)imidazo[1,2-a]pyrazin-8-yl)amino)-2-methylbenzamido)-N,N,N-trimethylhexan-1-aminium Formate] | 591 nM | –
10 | CCc1cc(Nc2nccn3c(-c4ccc(OC(F)F)c(F)c4F)cnc23)ccc1C(=O)NCCC1CC[N+](C)(CC2CNC2)CC1 (stereo not shown) [Example 91, N-[2-[1-(azetidin-3-ylmethyl)-1-methyl-piperidin-1-ium-4-ylethyl]-4-[[3-[4-(difluoromethoxy)-2,3-difluoro-phenyl]imidazo[1,2-a]pyrazin-8-yl]amino]-2-ethyl-benzamide Diformate] | – | IC90 [2]: 834 nM
11 | Cc1cc(Nc2nccn3c(-c4ccc(OCC#N)c(F)c4F)cnc23)ccc1C(=O)N1CCN(C(=O)C[N+](C)(C)C)CC1 [Example 56, [2-[4-[4-[[3-[4-(Cyanomethoxy)-2,3-difluorophenyl]imidazo[1,2-a]pyrazin-8-yl]amino]-2-methylbenzoyl]piperazin-1-yl]-2-oxoethyl]-trimethylazanium Iodide] | – | IC90 ([2]; Acinetobacter baumannii, ATCC17961, 16 h): 59.6 nM
12 | Methyl 2-[1-[1-(azetidin-3-ylmethyl)-1-methyl-piperidin-1-ium-4-carbonyl]-4-piperidyl]-2-[[4-[[3-(2,3-difluoro-4-methoxy-phenyl)imidazo[1,2-a]pyrazin-8-yl]amino]-2-ethyl-benzoyl]amino]acetate formate 2,2,2-trifluoroacetate (Mixed Salt) [Example 125] | – | IC90 [2]: 1550 nM

Further lines, with some results ahead:

Row | IC90 [1, 3] | Molecule | further results
13 | 132 nM | CCc1cc(Nc2nccn3c(-c4ccc(OCC#N)c(F)c4F)cnc23)ccc1C(=O)NCCOCC[N+](C)(C)C [Example 41, 2-[2-[[4-[[3-[4-(Cyanomethoxy)-2,3-difluoro-phenyl]imidazo[1,2-a]pyrazin-8-yl]amino]-2-ethyl-benzoyl]amino]ethoxy]ethyl-trimethyl-ammonium Iodide] | –
14 | 321 nM | CCC[N+](CCC)(CCC)CCOCCNC(=O)c1ccc(Nc2nccn3c(-c4ccc(OCC#N)c(F)c4F)cnc23)cc1Cl [Example 45, 2-[2-[[2-Chloro-4-[[3-[4-(cyanomethoxy)-2,3-difluoro-phenyl]imidazo[1,2-a]pyrazin-8-yl]amino]benzoyl]amino]ethoxy]ethyl-tripropyl-ammonium Iodide] | –
15 | 968 nM | CCCC[N+](CCCC)(CCCC)CCCNC(=O)c1ccc(Nc2nccn3c(-c4ccc(OC)c(F)c4F)cnc23)cc1Cl [Example 49, Tributyl-[3-[[2-chloro-4-[[3-(2,3-difluoro-4-methoxy-phenyl)imidazo[1,2-a]pyrazin-8-yl]amino]benzoyl]amino]propyl]ammonium Formate] | –
16 | 307 nM | COc1ccc(-c2cnc3c(Nc4ccc(C(=O)N5CCN(C(=O)C[N+](C)(C)C)CC5)c(C)c4)nccn23)cc1F [Example 32, 2-(4-(4-((3-(3-Fluoro-4-methoxyphenyl)imidazo[1,2-a]pyrazin-8-yl)amino)-2-methylbenzoyl)piperazin-1-yl)-N,N,N-trimethyl-2-oxoethan-1-aminium Iodide] | –
17 | 161 nM | C[N+]1(CCOCCNC(=O)c2ccc(Nc3nccn4c(-c5ccc(OCC#N)c(F)c5F)cnc34)cc2Cl)CCCC1 [Example 46, 2-Chloro-4-[[3-[4-(cyanomethoxy)-2,3-difluoro-phenyl]imidazo[1,2-a]pyrazin-8-yl]amino]-N-[2-[2-(1-methylpyrrolidin-1-ium-1-yl)ethoxy]ethyl]benzamide Formate] | –
18 | 1050 nM | COc1ccc(-c2cnc3c(Nc4ccc(C(=O)N(C)CCOCC[N+](C)(C)C)c(C)c4)nccn23)cc1F [Example 35, 2-(2-(4-((3-(3-Fluoro-4-methoxyphenyl)imidazo[1,2-a]pyrazin-8-yl)amino)-N,2-dimethylbenzamido)ethoxy)-N,N,N-trimethylethan-1-aminium Chloride] | –
19 | 2380 nM | Cc1cc(Nc2nccn3c(-c4ccc(OC(F)F)cc4)cnc23)ccc1C(=O)N(C)CCC1CCN(C(=O)CC(O)C[N+](C)(C)C)CC1 (stereo not shown) [Example 39, 4-(4-(2-(4-((3-(4-(Difluoromethoxy)phenyl)imidazo[1,2-a]pyrazin-8-yl)amino)-N,2-dimethylbenzamido)ethyl)piperidin-1-yl)-2-hydroxy-N,N,N-trimethyl-4-oxobutan-1-aminium Formate] | –
